Measurements: ChEMBL document CHEMBL1125946, “Total synthesis of a homochiral arene-fused prostacyclin analog” (Bioorg Med Chem Lett, 1991)

Species on record: Homo sapiens
Assay: Concentration required for the inhibition of collagen induced platelet aggregation; inactive
Assay type: functional

IC50: > 10 µM
Compound: O=C(O)COc1ccc2c(c1)CC[C@@H]1[C@@H](C#C[C@@H](O)C3CCCCC3)[C@H](O)C[C@H]21
